Patent US20240409538A1, “SUBSTITUTED TRIAZOLOHETEROARYL COMPOUNDS AS USP1 INHIBITORS AND THE USE THEREOF” (IMPACT THERAPEUTICS (SHANGHAI), INC., priority 2021, published 2024)

The molecules below were run against USP1/UAF1 (Homo sapiens (Human), UniProt O94782) (assay: USP1/UAF1 activity, ubiquitin-rhodamine110-glycine (Ub-Rho) assay). Details: 0.1 nM USP1/UAF1, 100 nM Ub-Rho, 120 minutes; read-out: IC50 (nM), inhibitory effects on USP1/UAF1 activity.
Format: biochemical
Protocol: USP1/UAF1 activity was determined by using ubiquitin-rhodamine110-glycine (Ub-Rho; Boston Biochem) assay. Enzymatic reactions were conducted in an assay buffer (50 mM Tris-HCl, pH 7.8, 0.5 mM EDTA, 100 mM NaCl, 1 mM DTT, 0.01 BSA, and 0.01% Tween-20) that contained 0.1 nM USP1/UAF1. Each individual compound was tested at ten concentrations in the range of 0.0005 to 10 μM. The plates were incubated for 15 min to attain equilibrium, and then the enzymatic reaction was initiated by dispensing 10 μL of Ub-Rho solution (100 nM final concentration). After treating 120 minutes with Ub-Rho solution, the rhodamine fluorescence was acquired using a 480 nm excitation/540 nm emission filter set by using Envision instrument. The inhibition rate of the compound to USP1/UAF1 enzyme activity was calculated according to the following formula.
IC50 value is obtained by fitting the s-shaped dose response curve equation by using XL Fit software. The curve equation is Y=100/(1+10^(log C−log IC50)). C is the compound concentration.

Chain of USP1/UAF1 (O94782 whole entry): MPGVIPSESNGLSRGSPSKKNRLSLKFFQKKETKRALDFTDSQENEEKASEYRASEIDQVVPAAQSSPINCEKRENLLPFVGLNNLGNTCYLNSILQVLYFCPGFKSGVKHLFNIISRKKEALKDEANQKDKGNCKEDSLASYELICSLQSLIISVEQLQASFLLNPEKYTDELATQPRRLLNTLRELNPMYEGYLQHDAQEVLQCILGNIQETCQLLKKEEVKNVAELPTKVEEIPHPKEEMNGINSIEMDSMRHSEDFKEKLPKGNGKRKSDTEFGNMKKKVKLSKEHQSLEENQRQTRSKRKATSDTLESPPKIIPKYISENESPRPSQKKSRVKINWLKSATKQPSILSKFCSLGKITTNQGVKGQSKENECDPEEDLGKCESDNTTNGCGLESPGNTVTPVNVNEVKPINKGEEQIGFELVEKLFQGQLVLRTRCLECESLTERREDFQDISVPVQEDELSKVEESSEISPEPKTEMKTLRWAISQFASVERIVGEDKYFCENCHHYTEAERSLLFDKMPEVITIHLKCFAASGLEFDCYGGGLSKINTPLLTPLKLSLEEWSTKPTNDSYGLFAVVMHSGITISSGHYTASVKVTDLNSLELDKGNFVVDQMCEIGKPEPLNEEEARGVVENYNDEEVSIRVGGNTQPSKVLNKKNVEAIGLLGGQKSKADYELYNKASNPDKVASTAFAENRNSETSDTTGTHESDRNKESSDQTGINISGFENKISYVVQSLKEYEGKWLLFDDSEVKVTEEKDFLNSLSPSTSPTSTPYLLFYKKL
Chain of USP1/UAF1 (Q8TAF3 whole entry partner): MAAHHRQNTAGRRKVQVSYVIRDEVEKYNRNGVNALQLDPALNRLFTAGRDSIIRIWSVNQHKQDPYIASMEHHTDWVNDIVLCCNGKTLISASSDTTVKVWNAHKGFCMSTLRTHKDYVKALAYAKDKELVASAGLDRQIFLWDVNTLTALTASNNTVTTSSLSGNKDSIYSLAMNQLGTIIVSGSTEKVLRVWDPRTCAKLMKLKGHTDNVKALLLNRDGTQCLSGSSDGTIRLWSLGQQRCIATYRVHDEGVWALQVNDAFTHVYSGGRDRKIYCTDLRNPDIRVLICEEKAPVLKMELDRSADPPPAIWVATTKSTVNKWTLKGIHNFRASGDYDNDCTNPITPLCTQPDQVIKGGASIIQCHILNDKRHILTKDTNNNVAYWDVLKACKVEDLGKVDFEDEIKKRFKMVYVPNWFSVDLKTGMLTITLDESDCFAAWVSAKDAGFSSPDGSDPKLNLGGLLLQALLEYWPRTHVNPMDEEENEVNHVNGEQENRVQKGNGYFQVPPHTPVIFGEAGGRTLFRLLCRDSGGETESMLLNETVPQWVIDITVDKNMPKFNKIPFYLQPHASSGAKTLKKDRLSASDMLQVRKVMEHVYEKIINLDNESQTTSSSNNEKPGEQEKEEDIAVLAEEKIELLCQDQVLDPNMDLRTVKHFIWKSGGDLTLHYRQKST

Structure (SMILES) | IC50 [nM]
COc1ncnc(C2CC2)c1-c1nc2c(Cc3ccc(-c4nc(C(F)(F)F)cn4C)cc3)nccn2n1 [Example 18, 2-(4-cyclopropyl-6-methoxypyrimidin-5-yl)-8-(4-(1-methyl-4-(trifluoromethyl)-1H-imidazol-2-yl)benzyl)-[1,2,4]triazolo[1,5-a]pyrazine] | 11.2
COc1ncnc(C2CC2)c1-c1nc2ccnc(Cc3ccc(-c4nc(C(F)(F)F)cn4C)cc3)n2n1 [Example 21, 2-(4-cyclopropyl-6-methoxypyrimidin-5-yl)-5-(4-(1-methyl-4-(trifluoromethyl)-1H-imidazol-2-yl)benzyl)-[1,2,4]triazolo[1,5-c]pyrimidine] | 16.1
COc1ncnc(C2CC2)c1-c1nc2c(Cc3ccc(-c4nc(C(F)(F)F)cn4C4CC4)cc3)cccn2n1 [Example 24, 8-(4-(1-cyclopropyl-4-(trifluoromethyl)-1H-imidazol-2-yl)benzyl)-2-(4-cyclopropyl-6-methoxypyrimidin-5-yl)-[1,2,4]triazolo[1,5-a]pyridine] | 11.8
COc1ncnc(C2CC2)c1-c1nc2c(Cc3ccc(-c4nc(C(F)(F)F)cn4C)c(F)c3)cccn2n1 [Example 25, 2-(4-cyclopropyl-6-methoxypyrimidin-5-yl)-8-(3-fluoro-4-(1-methyl-4-(trifluoromethyl)-1H-imidazol-2-yl)benzyl)-[1,2,4]triazolo[1,5-a]pyridine] | 11.6
CCn1cc(C(F)(F)F)nc1-c1c(F)cc(Cc2cccn3nc(-c4c(OC)ncnc4C4CC4)nc23)cc1OC [Example 26, 2-(4-cyclopropyl-6-methoxypyrimidin-5-yl)-8-(4-(1-ethyl-4-(trifluoromethyl)-1H-imidazol-2-yl)-3-fluoro-5-methoxybenzyl)-[1,2,4]triazolo[1,5-a]pyridine] | 39.5
COc1ncnc(C2CC2)c1-c1nc2c(Cc3ccc(-c4nc(C(F)(F)F)cn4C4CC4)cc3)nccn2n1 [Example 29, 8-(4-(1-cyclopropyl-4-(trifluoromethyl)-1H-imidazol-2-yl)benzyl)-2-(4-cyclopropyl-6-methoxypyrimidin-5-yl)-[1,2,4]triazolo[1,5-a]pyrazine] | 34.6
COc1ncnc(C2CC2)c1-c1nc2c(Cc3ccc(-c4nc(C(F)(F)F)cn4C)c(F)c3)nccn2n1 [Example 30, 2-(4-cyclopropyl-6-methoxypyrimidin-5-yl)-8-(3-fluoro-4-(1-methyl-4-(trifluoromethyl)-1H-imidazol-2-yl)benzyl)-[1,2,4]triazolo[1,5-a]pyrazine] | 41.4
CCn1cc(C(F)(F)F)nc1-c1c(F)cc(Cc2nccn3nc(-c4c(OC)ncnc4C4CC4)nc23)cc1F [Example 31, 2-(4-cyclopropyl-6-methoxypyrimidin-5-yl)-8-(4-(1-ethyl-4-(trifluoromethyl)-1H-imidazol-2-yl)-3,5-difluorobenzyl)-[1,2,4]triazolo[1,5-a]pyrazine] | 57.5
COc1ncnc(C2CC2)c1-c1nc2c(Cc3ccc(-c4nc(C(F)(F)F)cn4C4CC4)cc3)cncn2n1 [Example 32, 8-(4-(1-cyclopropyl-4-(trifluoromethyl)-1H-imidazol-2-yl)benzyl)-2-(4-cyclopropyl-6-methoxypyrimidin-5-yl)-[1,2,4]triazolo[1,5-c]pyrimidine] | 111
COc1ncnc(C2CC2)c1-c1nc2c(Cc3ccc(-c4nc(C(F)(F)F)cn4C)c(F)c3)cncn2n1 [Example 33, 2-(4-cyclopropyl-6-methoxypyrimidin-5-yl)-8-(3-fluoro-4-(1-methyl-4-(trifluoromethyl)-1H-imidazol-2-yl)benzyl)-[1,2,4]triazolo[1,5-c]pyrimidine] | 94.5
CCn1cc(C(F)(F)F)nc1-c1c(F)cc(Cc2cncn3nc(-c4c(OC)ncnc4C4CC4)nc23)cc1F [Example 34, 2-(4-cyclopropyl-6-methoxypyrimidin-5-yl)-8-(4-(1-ethyl-4-(trifluoromethyl)-1H-imidazol-2-yl)-3,5-difluorobenzyl)-[1,2,4]triazolo[1,5-c]pyrimidine] | 242
COc1ncnc(C2CC2)c1-c1nc2cccc(Cc3ccc(-c4nc(C(F)(F)F)cn4C4CC4)cc3)n2n1 [Example 37, 5-(4-(1-cyclopropyl-4-(trifluoromethyl)-1H-imidazol-2-yl)benzyl)-2-(4-cyclopropyl-6-methoxypyrimidin-5-yl)-[1,2,4]triazolo[1,5-a]pyridine] | 9.53
COc1ncnc(C2CC2)c1-c1nc2cccc(Cc3ccc(-c4nc(C(F)(F)F)cn4C)c(F)c3)n2n1 [Example 38, 2-(4-cyclopropyl-6-methoxypyrimidin-5-yl)-5-(3-fluoro-4-(1-methyl-4-(trifluoromethyl)-1H-imidazol-2-yl)benzyl)-[1,2,4]triazolo[1,5-a]pyridine] | 5.44
CCn1cc(C(F)(F)F)nc1-c1c(F)cc(Cc2cccc3nc(-c4c(OC)ncnc4C4CC4)nn23)cc1OC [Example 39, 2-(4-cyclopropyl-6-methoxypyrimidin-5-yl)-5-(4-(1-ethyl-4-(trifluoromethyl)-1H-imidazol-2-yl)-3-fluoro-5-methoxybenzyl)-[1,2,4]triazolo[1,5-a]pyridine] | 18.8
CCn1cc(C(F)(F)F)nc1-c1c(F)cc(Cc2nccc3nc(-c4c(OC)ncnc4C4CC4)nn23)cc1F [Example 42, 2-(4-cyclopropyl-6-methoxypyrimidin-5-yl)-5-(4-(1-ethyl-4-(trifluoromethyl)-1H-imidazol-2-yl)-3,5-difluorobenzyl)-[1,2,4]triazolo[1,5-c]pyrimidine] | 732
COc1ncnc(C2CC2)c1-c1nc2cncc(Cc3ccc(-c4nc(C(F)(F)F)cn4C4CC4)cc3)n2n1 [Example 43, 5-(4-(1-cyclopropyl-4-(trifluoromethyl)-1H-imidazol-2-yl)benzyl)-2-(4-cyclopropyl-6-methoxypyrimidin-5-yl)-[1,2,4]triazolo[1,5-a]pyrazine] | 38.9
COc1ncnc(C2CC2)c1-c1nc2cncc(Cc3ccc(-c4nc(C(F)(F)F)cn4C)c(F)c3)n2n1 [Example 44, 2-(4-cyclopropyl-6-methoxypyrimidin-5-yl)-5-(3-fluoro-4-(1-methyl-4-(trifluoromethyl)-1H-imidazol-2-yl)benzyl)-[1,2,4]triazolo[1,5-a]pyrazine] | 78.3
CCn1cc(C(F)(F)F)nc1-c1c(F)cc(Cc2cncc3nc(-c4c(OC)ncnc4C4CC4)nn23)cc1F [Example 45, 2-(4-cyclopropyl-6-methoxypyrimidin-5-yl)-5-(4-(1-ethyl-4-(trifluoromethyl)-1H-imidazol-2-yl)-3,5-difluorobenzyl)-[1,2,4]triazolo[1,5-a]pyrazine] | 99.7

Each molecule was assayed on BRCA mutant human breast cancer MDA-MB-436 cell line (assay: Growth inhibition of MDA-MB-436 cells, CCK-8 method). Details: MDA-MB-436, 168 h, 7 days incubation, read-out: IC50 (nM), inhibition of proliferation of MDA-MB-436 cells, CCK-8 method.
Format: cell-based
Protocol: The cells were cultured in complete medium (DMEM medium+10% FBS+Insulin+glutathione). When the confluence reached about 80%, cells were digested and gently dispensed from the bottom of the dish with a 1 mL pipette. Cell suspension was collected and centrifuged at 500 rpm for 3 min. The supernatant was discarded, and the cell pellet were re-suspended in complete medium. The cells were seeded into a culture dish at an appropriate proportion, and then cultured in a 5% CO2 incubator at 37° C. The assay was carried out when the cells were in optimum condition and the confluence was reached 80%. Cells in the logarithmic growth phase were taken to centrifugate, and the culture supernatant was removed. The cells were resuspended in refresh complete medium and counted. The resuspended cells were seeded at 3000/well in a 96-well plate and incubated at 37° C., 5% CO2 incubator overnight. The compound was prepared as below: 1000× dilution tested compound solution to 40× test compound solution by adding 5 μL 1000× compound solution to 120 μL Medium (25-fold dilution). The solution was mixed by oscillation, 0.1% DMSO was used as the control.
The next day, the 96-well plate inoculated with cells was taken out from the incubator, and the culture supernatant was removed. Then fresh medium of 195 uL/well and 5 μL/well of 40× test compound solution as mentioned above were added into the 96 well plate, respectively. Finally, the plate was incubated for 7 days in a 37° C. 5% CO2 incubator. The medium containing compound was changed on the fourth day.
CCK Method: After 7 days, 20 μL of CCK-8 was added to each well and shaken gently, then was cultured for 4 hours. The plate was shaken for 5 min after incubation, the absorbance values of 450 nm or 650 nm wavelengths were recorded respectively (OD=absorbance value of 450 nm−absorbance value of 650 nm) by using the multifunction readout instrument.
Data were analyzed by software GraphPad Prism 6.0. The inhibitory activity of compounds on cell proliferation was plotted using cell survival rate against the compound concentration as coordinates. Cell survival rate %=(ODcompound−ODbackground)/(ODDMSO−ODbackground)×100. The IC50 value was fitted by the s-shaped dose response curve equation: Y=100/(1+10^(log C−log IC50)), and C was the compound concentration.
Table 3 summarizes the inhibitory effect data (IC50) of the compounds on the proliferation of human breast cancer cells MDA-MB-436 determined by CCK-8 method.

Structure (SMILES) | IC50 [nM]
CC(C)c1ccccc1-c1nc2c(Cc3ccc(-c4nc(C(F)(F)F)cn4C)cc3)ccnn2n1 [Example 9, 2-(2-isopropylphenyl)-8-(4-(1-methyl-4-(trifluoromethyl)-1H-imidazol-2-yl)benzyl)-[1,2,4]triazolo[1,5-b]pyridazine] | 1170
CC(C)c1ccccc1-c1nc2cccc(Cc3ccc(-c4nc(C(F)(F)F)cn4C)cc3)n2n1 [Example 10, 2-(2-isopropylphenyl)-5-(4-(1-methyl-4-(trifluoromethyl)-1H-imidazol-2-yl)benzyl)-[1,2,4]triazolo[1,5-a]pyridine] | 226
Cc1cnn(C(C)C)c1-c1nc2cccc(Cc3ccc(-c4nc(C(F)(F)F)cn4C)cc3)n2n1 [Example 15, 2-(1-isopropyl-4-methyl-1H-pyrazol-5-yl)-5-(4-(1-methyl-4-(trifluoromethyl)-1H-imidazol-2-yl)benzyl)-[1,2,4]triazolo[1,5-a]pyridine] | 10.3
